According to ChEMBL document CHEMBL5584291, “Rational design of small-sized peptidomimetic inhibitors disrupting protein-protein interaction” (RSC Med Chem, 2024):
*1 amine or outer side, *2 acyl side, *3 side chain or, on linkers, in order; H or OH if unused. Where a SMILES comes first, the peptide text is derived from it. Bridges are numbered along the chain shown (N, C = ends). [ ]: non-standard residue; d: D form. The star is where a group is joined. ξ: configuration not given here. X2 = c1ccc(-c2cn(CC3CCCCC3)c([C@@H]3CCCN3*)n2)cc1; dαMeDab = C[C@](CCN[*:3])(N[*:1])C(=O)[*:2]; X1 = NC(CO)C(=O)NC(Cc1ccccc1)C(=O)NCCCCN*; Ala(cPent) = N[C@@H](CC1CCCC1)C(=O)O; Arg(Me) = CNC(=N)NCCC[C@H](N)C(=O)O; d(αMeK) = C[C@@](N)(CCCCN)C(=O)O; Pentanoyl(4-Me) = CC(C)CCC(=O)*; dPhg = N[C@@H](C(=O)O)c1ccccc1; Isobutyryl = CC(C)C(=O)*; ξE = NC(CCC(=O)O)C(=O)O; Abu = CC[C@H](N)C(=O)O; Dap = NC[C@H](N)C(=O)O

What was measured:
Splenocyte = assay: Inhibition of mouse splenocyte proliferation at 100 nM relative to control; type: functional
[1] = target: Programmed cell death protein 1/Programmed cell death 1 ligand 1 (Homo sapiens, UniProt Q15116+Q9NZQ7); assay: Inhibition of PD-1/PD-L1 (unknown origin) protein-protein interaction by HTRF assay; type: protein-complex assay
B16-F10 = assay: Antitumor activity against mouse B16-F10 cells xenografted in C57BL/6 mouse assessed as reduction in lung metastasis at 5 mg/kg, ip administered once daily for 14 days relative to control; type: functional; parameters: scale not given: the % may be the effect or the level left; settings: time 14 day
[2] = Inhibition of human full length WDR5/RbBP5 (1 to 538 residues)/ASH2L (1 to 635 residues) expressed in Rosetta2 BL21 (DE3) pLysS incubated for 90 mins by SPA based histone methyltransferase assay
[3] = target: Histone-lysine N-methyltransferase, H3 lysine-79 specific (Homo sapiens, UniProt Q8TEK3); assay: Binding affinity to DOT1L (unknown origin) assessed as inhibition constant
Chain of Histone-lysine N-methyltransferase, H3 lysine-79 specific (Q8TEK3 whole entry): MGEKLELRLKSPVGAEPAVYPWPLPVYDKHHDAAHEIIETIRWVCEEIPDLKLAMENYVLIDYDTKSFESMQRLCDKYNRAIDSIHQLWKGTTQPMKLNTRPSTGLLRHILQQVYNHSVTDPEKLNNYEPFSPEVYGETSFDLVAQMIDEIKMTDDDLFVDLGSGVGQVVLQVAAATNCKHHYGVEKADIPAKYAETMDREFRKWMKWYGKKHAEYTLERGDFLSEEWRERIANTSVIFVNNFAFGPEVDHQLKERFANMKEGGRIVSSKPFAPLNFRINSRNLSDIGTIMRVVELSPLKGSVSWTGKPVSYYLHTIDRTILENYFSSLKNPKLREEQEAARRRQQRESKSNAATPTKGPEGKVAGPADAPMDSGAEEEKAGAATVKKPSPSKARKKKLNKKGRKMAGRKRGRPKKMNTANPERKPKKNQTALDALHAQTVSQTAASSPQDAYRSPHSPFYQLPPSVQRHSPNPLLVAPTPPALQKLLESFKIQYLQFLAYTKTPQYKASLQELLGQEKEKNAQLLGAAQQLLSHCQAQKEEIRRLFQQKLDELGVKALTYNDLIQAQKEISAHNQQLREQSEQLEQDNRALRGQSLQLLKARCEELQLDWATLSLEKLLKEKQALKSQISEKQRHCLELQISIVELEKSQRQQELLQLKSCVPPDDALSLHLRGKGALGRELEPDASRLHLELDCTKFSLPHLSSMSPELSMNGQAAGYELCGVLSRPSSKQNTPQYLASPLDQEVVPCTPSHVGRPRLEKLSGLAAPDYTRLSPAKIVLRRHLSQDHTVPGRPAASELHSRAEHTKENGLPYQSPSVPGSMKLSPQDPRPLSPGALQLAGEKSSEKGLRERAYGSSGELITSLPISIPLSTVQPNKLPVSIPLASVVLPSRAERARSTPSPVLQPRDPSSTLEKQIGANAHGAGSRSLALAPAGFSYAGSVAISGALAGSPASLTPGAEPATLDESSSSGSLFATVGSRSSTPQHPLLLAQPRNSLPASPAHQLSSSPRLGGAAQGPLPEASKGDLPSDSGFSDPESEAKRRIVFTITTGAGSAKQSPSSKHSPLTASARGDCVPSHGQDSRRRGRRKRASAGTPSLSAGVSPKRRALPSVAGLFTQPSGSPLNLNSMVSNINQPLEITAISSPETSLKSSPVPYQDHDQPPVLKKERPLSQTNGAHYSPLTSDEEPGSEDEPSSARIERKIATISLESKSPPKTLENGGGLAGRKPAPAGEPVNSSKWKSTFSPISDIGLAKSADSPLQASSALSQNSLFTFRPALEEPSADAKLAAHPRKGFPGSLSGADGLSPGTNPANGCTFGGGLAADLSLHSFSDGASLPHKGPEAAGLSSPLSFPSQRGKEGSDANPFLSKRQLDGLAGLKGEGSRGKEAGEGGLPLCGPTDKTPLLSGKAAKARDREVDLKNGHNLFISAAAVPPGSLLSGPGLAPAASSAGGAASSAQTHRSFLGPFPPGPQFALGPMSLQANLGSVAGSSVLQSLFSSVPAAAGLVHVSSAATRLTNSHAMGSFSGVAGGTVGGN

Chain of Programmed cell death protein 1/Programmed cell death 1 ligand 1 (Q15116 whole entry): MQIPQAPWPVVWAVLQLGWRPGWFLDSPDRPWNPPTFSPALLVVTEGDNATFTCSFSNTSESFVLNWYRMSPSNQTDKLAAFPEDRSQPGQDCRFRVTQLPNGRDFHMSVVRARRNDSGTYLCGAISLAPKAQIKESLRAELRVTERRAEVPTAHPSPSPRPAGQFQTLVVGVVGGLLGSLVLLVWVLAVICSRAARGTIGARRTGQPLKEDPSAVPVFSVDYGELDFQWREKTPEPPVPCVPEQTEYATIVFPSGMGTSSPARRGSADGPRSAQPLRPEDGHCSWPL
Chain of Programmed cell death protein 1/Programmed cell death 1 ligand 1 (Q9NZQ7 whole entry): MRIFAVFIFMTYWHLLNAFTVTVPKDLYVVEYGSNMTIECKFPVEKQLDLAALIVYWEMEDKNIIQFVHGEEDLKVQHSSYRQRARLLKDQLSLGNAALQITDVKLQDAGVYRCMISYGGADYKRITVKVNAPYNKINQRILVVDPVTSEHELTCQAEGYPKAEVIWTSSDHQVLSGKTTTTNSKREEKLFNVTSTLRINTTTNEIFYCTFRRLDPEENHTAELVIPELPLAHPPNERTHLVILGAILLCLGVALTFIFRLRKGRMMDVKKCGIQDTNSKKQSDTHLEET

SMILES: NCCCC[C@H](NC(=O)N[C@@H](CC(N)=O)C(=O)NNC(=O)[C@@H](N)CO)C(=O)O
- inhibition at 0.1 µM (Splenocyte): 87%

SMILES: C[C@H](O)[C@H](NC(=O)N[C@@H](CC(N)=O)C(=O)NNC(=O)[C@@H](N)CO)C(=O)O
- inhibition at 0.1 µM (Splenocyte): 68%

SMILES: CC(O)[C@H](NC(=O)N[C@@H](CC(N)=O)C1NC([C@@H](N)CO)=NO1)C(=O)O (stereo partly drawn)
- IC50 [1]: 17 nM

SMILES: C[C@@H](O)[C@@H]1NCC(=O)C(NC(=O)[C@@H](N)CO)CCC(=O)NCCCCC(C(=O)N[C@@H](CO)C(=O)N[C@@H](Cc2ccccc2)C(N)=O)NC(=O)[C@H](CO)NC1=O (stereo partly drawn)
- Activity (B16-F10): 54%

SMILES: C[C@@H](O)[C@H](NC(=O)[C@H](CC(N)=O)NC(=O)[C@@H](N)CO)C(=O)N[C@@H](CO)C(=O)NC(CCC(=O)NCCCCNC(=O)C(Cc1ccccc1)NC(=O)C(N)CO)C(N)=O (stereo partly drawn) (H-SNTS[ξE](X1)-NH2)
- Activity (B16-F10): 4%

SMILES: CC[C@@H]1NC(=O)[C@H](CCCNC(=N)N)NC(=O)[C@](C)(NC(=O)C(C)C)CCCCNC(=O)[C@@H](c2ccccc2)NC1=O (Isobutyryl-[d(αMeK)]R[Abu][dPhg]; lactam 1-C)
- IC50 [2]: 0.9 nM

SMILES: CC[C@@H]1NC(=O)[C@H](CCCNC(=N)NC)NC(=O)[C@](C)(NC(=O)C(C)C)CCNC(=O)[C@@H](c2ccccc2)NC1=O (Isobutyryl-[dαMeDab][Arg(Me)][Abu][dPhg]; lactam 1-C)
- IC50 [2]: 0.9 nM

SMILES: CC(C)CCC(=O)N1CCC[C@H]1C(=O)N[C@H](C(=O)N[C@@H](CN)C(=O)N[C@@H](CC1CCCC1)C(=O)N1CCC[C@H]1c1nc(-c2ccccc2)cn1CC1CCCCC1)C(C)C ({Pentanoyl(4-Me)}-PV[Dap][Ala(cPent)]-X2)
- Ki [3]: 23 nM
